Test results published in patent US9540343B2 (Gilead Sciences, Inc., priority 2011, dated 2017).

Assays:
HIV-IIIb = assay: Test A: Antiviral assay in MT4 cells; format: cell-based, HIV-1; conditions: Human immunodeficiency virus 1, IIIB, MT4, 120 h, read-out: % inhibition at 2 μM, percent inhibition of virus-induced cell killing, from dose response curve at 2 uM drug; MT-4 cells infected with HIV-IIIb, 5 days, CellTiter-Glo
in vitro = conditions: human, uninfected MT-4 cells, CC50 (nM), same protocol as Test A, CellTiter-Glo
Procedure, shortened: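 Cytoprotection read-out: CellTiter-Glo chemiluminescence after 5 days at 37 °C of HIV-IIIb-infected MT-4 cells (m.o.i. 0.003) with compound in 10-point 3-fold dilutions, quadruplicate, 10% FBS. Cytotoxicity (CC50) measured identically without virus.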

SMILES | inhibition at 2 µM (HIV-IIIb) [%] | CC50 at 5 days (in vitro) [nM]
O=C(Cn1nc(C(F)(F)F)c2c1C1CC1CC2)N[C@@H](Cc1cc(F)cc(F)c1)c1ncccc1-c1cnc2[nH]ccc2c1 (stereo partly drawn) [Example 379, N—((S)-1-(3-(1H-pyrrolo[2,3-b]pyridin-5-yl)pyridin-2-yl)-2-(3,5-difluorophenyl)ethyl)-2-(3-(trifluoromethyl)-5,5a,6,6a-tetrahydrocyclopropa[g]indazol-1(4H)-yl)acetamide] | 112 | 9240
NC(=O)c1cc(-c2cccnc2[C@H](Cc2cc(F)cc(F)c2)NC(=O)Cn2nc(C(F)F)c3c2C(F)(F)CCC3)ccc1F [Example 380, (S)-5-(2-(1-(2-(3-(difluoromethyl)-7,7-difluoro-4,5,6,7-tetrahydro-1H-indazol-1-yl)acetamido)-2-(3,5-difluorophenyl)ethyl)pyridin-3-yl)-2-fluorobenzamide] | 97 | 18300
NC(=O)c1cc(-c2cccnc2[C@H](Cc2cc(F)cc(F)c2)NC(=O)Cn2nc3c(c2C(F)(F)F)C(F)(F)C2CC32)ccc1F (stereo partly drawn) [Example 381, 5-(2-((1S)-1-(2-(4,4-difluoro-3-(trifluoromethyl)-4,4-a,5,5a-tetrahydro-2H-cyclopropa[4,5]cyclopenta[1,2-c]pyrazol-2-yl)acetamido)-2-(3,5-difluorophenyl)ethyl)pyridin-3-yl)-2-fluorobenzamide] | 1 | 24900
NC(=O)c1cccc(-c2cccnc2[C@H](Cc2cc(F)cc(F)c2)NC(=O)Cn2cnc3c2CCCC3)c1 [Example 382, (S)-3-(2-(2-(3,5-difluorophenyl)-1-(2-(4,5,6,7-tetrahydro-1H-benzo[d]imidazol-1-yl)acetamido)ethyl)pyridin-3-yl)benzamide] | 85 | > 39900
O=C(Cn1nc(C(F)(F)F)c2c1CCCC2)N[C@H](Cc1cc(F)cc(F)c1)c1ncncc1-c1ccc(Cl)cc1 [Example 383, (R)—N-(1-(5-(4-chlorophenyl)pyrimidin-4-yl)-2-(3,5-difluorophenyl)ethyl)-2-(3-(trifluoromethyl)-4,5,6,7-tetrahydro-1H-indazol-1-yl)acetamide] | 32 | 15500
NC(=O)c1cc(-c2cccnc2[C@H](Cc2cc(F)cc(F)c2)NC(=O)Cn2nc(C(F)F)c3c2C(O)CCC3)ccc1F (stereo partly drawn) [Example 384, 5-(2-((1S)-1-(2-(3-(difluoromethyl)-7-hydroxy-4,5,6,7-tetrahydro-1H-indazol-1-yl)acetamido)-2-(3,5-difluorophenyl)ethyl)pyridin-3-yl)-2-fluorobenzamide] | 97 | > 53200
Cc1cc(C(F)(F)F)nn1CC(=O)N[C@@H](Cc1cc(F)cc(F)c1)c1ncccc1-c1ccc(F)c(C(N)=O)c1 [Example 385, (S)-5-(2-(2-(3,5-difluorophenyl)-1-(2-(5-methyl-3-(trifluoromethyl)-1H-pyrazol-1-yl)acetamido)ethyl)pyridin-3-yl)-2-fluorobenzamide] | 40 | > 53200
NC(=O)c1cc(-c2cccnc2[C@H](Cc2cc(F)cc(F)c2)NC(=O)Cn2nc(C(F)(F)F)c3c2CC(F)(F)CC3)ccc1F [Example 387, (S)-5-(2-(1-(2-(6,6-difluoro-3-(trifluoromethyl)-4,5,6,7-tetrahydro-1H-indazol-1-yl)acetamido)-2-(3,5-difluorophenyl)ethyl)pyridin-3-yl)-2-fluorobenzamide] | 61 | 21200
CN1CCc2c(C(F)(F)F)nn(CC(=O)N[C@@H](Cc3cc(F)cc(F)c3)c3ncccc3-c3ccc(F)c(C(N)=O)c3)c2C1 [Example 388, (S)-5-(2-(2-(3,5-difluorophenyl)-1-(2-(6-methyl-3-(trifluoromethyl)-4,5,6,7-tetrahydro-1H-pyrazolo[3,4-c]pyridin-1-yl)acetamido)ethyl)pyridin-3-yl)-2-fluorobenzamide] | 54 | > 53200
CC(=O)c1cn(CC(=O)N[C@@H](Cc2cc(F)cc(F)c2)c2ncccc2-c2ccc(F)c(C(N)=O)c2)nc1C(F)(F)F [Example 389B, (S)-5-(2-(1-(2-(4-acetyl-3-(trifluoromethyl)-1H-pyrazol-1-yl)acetamido)-2-(3,5-difluorophenyl)ethyl)pyridin-3-yl)-2-fluorobenzamide] | 2 | > 53200
NC(=O)c1cc(-c2cccnc2C(Cc2cc(F)cc(F)c2)NC(=O)Cn2nc(C(F)F)c3c2C(F)(F)CCC3F)ccc1F (stereo not drawn) [Example 390, 5-(2-(1-(2-(3-(difluoromethyl)-4,7,7-trifluoro-4,5,6,7-tetrahydro-1H-indazol-1-yl)acetamido)-2-(3,5-difluorophenyl)ethyl)pyridin-3-yl)-2-fluorobenzamide] | 99 | 21600
NC(=O)c1cc(-c2cccnc2[C@H](Cc2cc(F)cc(F)c2)NC(=O)Cn2nc(C(F)(F)F)c3c2C(O)CC3)ccc1F (stereo partly drawn) [Example 391, 5-(2-((1S)-2-(3,5-difluorophenyl)-1-(2-(6-hydroxy-3-(trifluoromethyl)-5,6-dihydrocyclopenta[c]pyrazol-1(4H)-yl)acetamido)ethyl)pyridin-3-yl)-2-fluorobenzamide] | 60 | 44800
NC(=O)c1cc(-c2cccnc2C(Cc2cc(F)cc(F)c2)NC(=O)Cn2nc(C(F)F)c3c2C2CC2CC3)ccc1F (stereo not drawn) [Example 392, 5-(2-(1-(2-(3-(difluoromethyl)-5,5a,6,6a-tetrahydrocyclopropa[g]indazol-1(4H)-yl)acetamido)-2-(3,5-difluorophenyl)ethyl)pyridin-3-yl)-2-fluorobenzamide] | 105 | 19100
CCCCNS(=O)(=O)c1ccc(-c2cccnc2[C@H](Cc2cc(F)cc(F)c2)NC(=O)Cn2nc(C(F)F)c3c2C(F)(F)C2CC32)cc1 (stereo partly drawn) [Example 393, (S)—N-(1-(3-(4-(N-butylsulfamoyl)phenyl)-pyridin-2-yl)-2-(3,5-difluorophenyl)ethyl)-2-(3-(difluoromethyl)-5,6-dihydro-4,5-(methano)-6,6-difluoro-cyclopenta[c]pyrazol-1(4H)-yl)acetamide] | 54 | 26100
CC(=O)Nc1ccc(-c2cccnc2[C@H](Cc2cc(F)cc(F)c2)NC(=O)Cc2c[nH]c3ccc(F)cc23)cc1 [Example 394] | 14 | 30800
O=C(Cc1c[nH]c2ccc(F)cc12)N[C@@H](Cc1cc(F)cc(F)c1)c1ncccc1-c1ccccc1Cl [Example 395, (S)—N-(1-(3-(2-chlorophenyl)pyridin-2-yl)-2-(3,5-difluorophenyl)ethyl)-2-(5-fluoro-1H-indol-3-yl)acetamide] | 41 | 11600
O=C(Cc1c[nH]c2ccc(F)cc12)N[C@@H](Cc1cc(F)cc(F)c1)c1ncccc1-c1ccc(Cl)c(Cl)c1 [Example 396, (S)—N-(1-(3-(3,4-dichlorophenyl)pyridin-2-yl)-2-(3,5-difluorophenyl)ethyl)-2-(5-fluoro-1H-indol-3-yl)acetamide] | 39 | 10000
NC(=O)c1cc(-c2cccnc2[C@H](Cc2cc(F)cc(F)c2)NC(=O)Cn2nc(C(F)F)c3c2C2CC(C2)C3=O)ccc1F [Example 397, (S)-5-(2-(2-(3,5-difluorophenyl)-1-(2-(4,5,6,7-tetrahydro-3-difluoromethyl-4-oxo-5,7-(methano)indazol-1-yl)acetamido)ethyl)pyridin-3-yl)-2-fluorobenzamide] | 26 | > 53200
